These compounds were tested on M17_3TAU(P301L) cells (assay: TAU-induced cytotoxicity (LDH) in the neuroblastoma tauopathy model). Details: Homo sapiens, 168 h, inhibition of TAU-induced toxicity, 7 days retinoic acid differentiation, LDH readout.
Format: cell-based
Procedure, shortened: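 Stably transfected BE-M17 cells expressing human TAU-P301L, seeded in serum-free detection medium, then differentiated with 2.5 μM RA (added in equal volume) for 7 days at 37° C/5% CO2 to induce TAU aggregation. Cytotoxicity = supernatant LDH increase over total LDH; EC50 from dose-dependent inhibition curves.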

Compared with Cc1nc(CN2CC3(C2)CN(C(=O)CC2CCC(F)(F)CC2)C3)c(Cl)s1 [Cpd B117], Cc1c(Cl)c(CN2CC3(C2)CN(C(=O)CC2CCC(F)(F)CC2)C3)nn1C [Cpd B121] is 3.3-fold higher in EC50: 3.81 nM for the first, 12.5 nM for the second.

First: CCn1ccc(CN2CC3(C2)CN(C(=O)CC2CCC(F)(F)CC2)C3)n1 [Cpd B118]
Second: Cn1cnc(CN2CC3(C2)CN(C(=O)CC2CCC(F)(F)CC2)C3)c1 [Cpd B126]
The EC50 of the first is 6.9-fold lower: 27.8 nM for the first, 192 nM for the second. The first is the more potent here.

First: Cn1cc(CN2CC3(C2)CN(C(=O)CC2CCC(F)(F)CC2)C3)cn1 [Cpd B119]
Second: Cn1cc(Cl)c(CN2CC3(C2)CN(C(=O)CC2CCC(F)(F)CC2)C3)n1 [Cpd B120]
The EC50 of the first is 11-fold higher: 46 nM for the first, 4.27 nM for the second.

Compared with Cc1nn(C)c(CN2CC3(C2)CN(C(=O)CC2CCC(F)(F)CC2)C3)c1Cl [Cpd B122], Cc1[nH]cnc1CN1CC2(C1)CN(C(=O)CC1CCC(F)(F)CC1)C2 [Cpd B124] is 68-fold lower in EC50: 3720 nM for the first, 54.4 nM for the second. The second is the more potent here.

Compared with Cc1nc(CN2CC3(C2)CN(C(=O)CC2CCC(F)(F)CC2)C3)c[nH]1 [Cpd B125], Cc1nc(CN2CC3(C2)CN(C(=O)CC2CCC(F)(F)CC2)C3)co1 [Cpd B127] is 10-fold lower in EC50: 705 nM for the first, 67.6 nM for the second.

Going from O=C(OCC1CCOCC1)N1CC2(CN(Cc3ccc(F)cc3)C2)C1 [Cpd B128, (tetrahydro-2H-pyran-4-yl)methyl 6-(4-fluorobenzyl)-2,6-diazaspiro[3.3]heptane-2-carboxylate] to O=C(OCC1CCCC1)N1CC2(CN(Cc3ccc(F)cc3)C2)C1 [Cpd B131], the EC50 falls from 126 nM to 4.38 nM (29-fold).

Going from O=C(OCC12CC(F)(C1)C2)N1CC2(CN(Cc3ccc(F)cc3)C2)C1 [Cpd B129] to O=C(OCC1CCC(F)(F)CC1)N1CC2(CN(Cc3ccc(F)cc3)C2)C1 [Cpd B132], the EC50 falls from 97 nM to 3.16 nM (31-fold). The second is the more potent here.

Compared with O=C(OCc1ccc(Cl)cc1)N1CC2(CN(Cc3ccc(F)cc3)C2)C1 [Cpd B130], Cc1cccnc1CN1CC2(C1)CN(C(=O)OCc1ccc(Cl)cc1)C2 [Cpd B137] is 3.7-fold higher in EC50: 13.3 nM for the first, 49.3 nM for the second. The first is the more potent here.

Going from O=C(OC1CCC(F)(F)CC1)N1CC2(CN(Cc3ccc(F)cc3)C2)C1 [Cpd B133] to O=C(OC1CCC(F)(F)CC1)N1CC2(CN(Cc3ccc(F)cc3Cl)C2)C1 [Cpd B151], the EC50 falls from 2.9 nM to 0.52 nM (5.6-fold). The second is the more potent here.

First: COc1cccc(CN2CC3(C2)CN(C(=O)OC2CCC(F)(F)CC2)C3)c1 [Cpd B135]
Second: Cc1cccnc1CN1CC2(C1)CN(C(=O)OC1CCC(F)(F)CC1)C2 [Cpd B139]
The EC50 of the first is lower: under 0.19 nM for the first, 20.6 nM for the second. The first is the more potent here.

First: Cc1nc(CN2CC3(C2)CN(C(=O)OCC24CC(F)(C2)C4)C3)cs1 [Cpd B136]
Second: Cc1nc(CN2CC3(C2)CN(C(=O)OCC2CCC(F)(F)CC2)C3)cs1 [Cpd B156]
The EC50 of the first is 8.1-fold higher: 671 nM for the first, 83.3 nM for the second. The second is the more potent here.

Going from Cc1cccnc1CN1CC2(C1)CN(C(=O)OC1CCCC1)C2 [Cpd B138] to Cc1cccnc1CN1CC2(C1)CN(C(=O)NC1CCCCC1)C2 [Cpd B178], the EC50 falls from 888 nM to 128 nM (6.9-fold). The second is the more potent here.

Going from COc1cccc(CN2CC3(C2)CN(C(=O)Oc2ccc(F)cc2)C3)c1 [Cpd B140, 4-fluorophenyl 6-(3-methoxybenzyl)-2,6-diazaspiro[3.3]heptane-2-carboxylate] to COc1cccc(CN2CC3(C2)CN(C(=O)NCc2ccc(F)cc2)C3)c1 [Cpd B181], the EC50 rises from 1.5 nM to 4.98 nM (3.3-fold). The first is the more potent here.

Compared with Cc1cccnc1CN1CC2(C1)CN(C(=O)Oc1ccc(Cl)cc1)C2 [Cpd B141], Cc1cccnc1CN1CC2(C1)CN(C(=O)Nc1ccc(Cl)cc1)C2 [Cpd B179] is 6.3-fold higher in EC50: 2.57 nM for the first, 16.1 nM for the second. The first is the more potent here.

Going from Cn1ncc(Cl)c1CN1CC2(C1)CN(C(=O)OC1CCC(F)(F)CC1)C2 [Cpd B142, 4,4-difluorocyclohexyl 6-((4-chloro-1-methylpyrazol-5-yl)methyl)-2,6-diazaspiro[3.3]heptane-2-carboxylate] to Cn1ncc(CN2CC3(C2)CN(C(=O)OC2CCC(F)(F)CC2)C3)c1Cl [Cpd B144], the EC50 falls from 864 nM to 86.5 nM (10-fold). The second is the more potent here.

Compared with Cc1nc(CN2CC3(C2)CN(C(=O)OC2CCC(F)(F)CC2)C3)co1 [Cpd B143], Cc1csc(CN2CC3(C2)CN(C(=O)OC2CCC(F)(F)CC2)C3)c1 [Cpd B146] is lower in EC50: 109 nM for the first, under 0.19 nM for the second.

Cn1cc(Cl)c(CN2CC3(C2)CN(C(=O)OC2CCC(F)(F)CC2)C3)n1 [Cpd B145] and Cn1cc(Cl)c(CN2CC3(C2)CN(C(=O)OCC2CCC(F)(F)CC2)C3)n1 [Cpd B159] are within 1.5-fold of each other in EC50: 2.78 nM for the first, 2.29 nM for the second.

O=C(OC1CCC(F)(F)CC1)N1CC2(CN(Cc3ccccc3C(F)(F)F)C2)C1 [Cpd B147] and O=C(OCC1CCC(F)(F)CC1)N1CC2(CN(Cc3ccccc3C(F)(F)F)C2)C1 [Cpd B165] are within 1.5-fold of each other in EC50: 3.25 nM for the first, 2.49 nM for the second.

Going from O=C(OC1CCC(F)(F)CC1)N1CC2(CN(Cc3c(F)cccc3C(F)(F)F)C2)C1 [Cpd B148] to O=C(OC1CCC(F)(F)CC1)N1CC2(CN(Cc3ncccc3C(F)(F)F)C2)C1 [Cpd B155], the EC50 falls from 396 nM to 4.67 nM (85-fold).

Compared with O=C(OC1CCC(F)(F)CC1)N1CC2(CN(Cc3ccccc3OC(F)F)C2)C1 [Cpd B149], O=C(OC1CCC(F)(F)CC1)N1CC2(CN(Cc3ccc(F)cc3F)C2)C1 [Cpd B152] is 2.7-fold lower in EC50: 7.58 nM for the first, 2.76 nM for the second. The second is the more potent here.

Going from O=C(OC1CCC(F)(F)CC1)N1CC2(CN(Cc3ccc(Cl)cc3F)C2)C1 [Cpd B150] to O=C(OC1CCC(F)(F)CC1)N1CC2(CN(Cc3ccc(F)cn3)C2)C1 [Cpd B153], the EC50 rises from under 0.19 nM to 37.2 nM.

Compared with O=C(OC1CCC(F)(F)CC1)N1CC2(CN(Cc3ncccc3Cl)C2)C1 [Cpd B154], O=C(OCC1CCC(F)(F)CC1)N1CC2(CN(Cc3ncccc3Cl)C2)C1 [Cpd B160] is 2.1-fold lower in EC50: 7.81 nM for the first, 3.68 nM for the second. The second is the more potent here.

Going from Cn1cc(CN2CC3(C2)CN(C(=O)OCC2CCC(F)(F)CC2)C3)c(Cl)n1 [Cpd B157] to Cn1ncc(CN2CC3(C2)CN(C(=O)OCC2CCC(F)(F)CC2)C3)c1Cl [Cpd B158], the EC50 rises from 9.33 nM to 65.3 nM (7-fold).

O=C(OCC1CCC(F)(F)CC1)N1CC2(CN(Cc3ccc(F)cn3)C2)C1 [Cpd B161] and O=C(OCC1CCC(F)(F)CC1)N1CC2(CN(Cc3ncccc3F)C2)C1 [Cpd B162] are within 1.5-fold of each other in EC50: 49.3 nM for the first, 51.6 nM for the second.

First: O=C(OCC1CCC(F)(F)CC1)N1CC2(CN(Cc3ncccc3C(F)(F)F)C2)C1 [Cpd B163]
Second: O=C(OCC1CCC(F)(F)CC1)N1CC2(CN(Cc3ccc(F)cc3C(F)(F)F)C2)C1 [Cpd B166]
The EC50 of the first is 5-fold higher: 3.67 nM for the first, 0.74 nM for the second.

Going from O=C(OCC1CCC(F)(F)CC1)N1CC2(CN(Cc3ccc(C(F)(F)F)cc3)C2)C1 [Cpd B164] to O=C(NCC1CCC(F)(F)CC1)N1CC2(CN(Cc3ccc(F)cc3)C2)C1 [Cpd B167, N-((4,4-difluorocyclohexyl)methyl)-6-(4-fluorobenzyl)-2,6-diazaspiro[3.3]heptane-2-carboxamide], the EC50 falls from 19.1 nM to 4.17 nM (4.6-fold). The second is the more potent here.

First: O=C(NC1CC(F)(F)C1)N1CC2(CN(Cc3ccc(F)cc3)C2)C1 [Cpd B168]
Second: Cc1cccnc1CN1CC2(C1)CN(C(=O)NC1CC(F)(F)C1)C2 [Cpd B170]
The EC50 of the first is 4.4-fold lower: 780 nM for the first, 3440 nM for the second.

Going from O=C(NCC1CCOCC1)N1CC2(CN(Cc3ccc(F)cc3)C2)C1 [Cpd B169] to Cc1cccnc1CN1CC2(C1)CN(C(=O)NCC1CCCCC1)C2 [Cpd B177], the EC50 falls from 881 nM to 5.39 nM (160-fold).

Cc1cccnc1CN1CC2(C1)CN(C(=O)NC1CCC(F)(F)CC1)C2 [Cpd B171] and Cc1nc(CN2CC3(C2)CN(C(=O)N(C)C2CCC(F)(F)CC2)C3)cs1 [Cpd B172] are within 1.5-fold of each other in EC50: 77.8 nM for the first, 102 nM for the second.

Going from COc1cccc(CN2CC3(C2)CN(C(=O)NCc2cccc(C(F)(F)F)c2)C3)c1 [Cpd B173] to COc1ccc(CNC(=O)N2CC3(CN(Cc4ncccc4C)C3)C2)cc1 [Cpd B180], the EC50 falls from 30.3 nM to under 0.19 nM.

Cc1nc(CN2CC3(C2)CN(C(=O)Nc2cccc(C(F)(F)F)c2)C3)cs1 [Cpd B176] showed an EC50 of 73.4 nM.

Source: US20250388592A1 (REMYND N.V., priority 2022, published 2025)
